According to PubChem BioAssay AID179 (DTP/NCI, 2004):
The source made the active and inactive calls.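 How the source made its calls: active means compounds giving half or more protection of infected cells from virus-caused growth loss, again on retest; inactive means the rest.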 Where a SMILES comes first, the peptide text is derived from it. [ ]: non-standard residue; d: D form. The star is where a group is joined. ξ: configuration not given here. ξD = NC(CC(=O)O)C(=O)O; Ac3c = NC1(C(=O)O)CC1; Boc = CC(C)(C)OC(=O)*; OtBu = CC(C)(C)O*

Test system: CEM cells HIV-1 protection, formazan growth assay
Assay: NCI AIDS Antiviral Assay
Conditions: for IC50: measured here: growth of uninfected CEM cells
Method in brief: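 Five concentrations of each compound were applied to infected and uninfected human CEM cells. Protection from HIV-1 was judged from growth measured with a soluble formazan assay.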

SMILES | EC50 [µM] | IC50 [µM] | outcome
COc1ccc(C(=O)N/N=C/c2c(C)n(C)n(-c3ccccc3)c2=O)cc1 | > 200 | > 200 | –
CSc1nc(-c2ccccc2)nc(C(C#N)C#N)n1 | – | – | inactive
O=[N+]([O-])C1C2C=CC(C2)[C@H]1c1ccc(Cl)cc1Cl (stereo partly specified) | – | – | inactive
COc1nc2cc3c(cc2n2cccc12)oc1ccccc13 | 155 | > 200 | –
OCC[P+](c1ccccc1)(c1ccccc1)c1ccccc1 | > 200 | 12.3 | –
c1ccc(-n2nc3ccc4nonc4c3n2)cc1 | > 200 | > 200 | –
CC1CN=C(NS(=O)(=O)c2cc(C(=O)Nc3ccc(F)cc3)c(Cl)cc2S)NN1 (stereo unspecified) | > 200 | 24 | –
C/C=C/CC(S(=O)(=O)c1ccccc1)S(=O)(=O)c1ccccc1 | > 100 | > 100 | –
NC(=S)NCC12CC3CC(CC(C3)C1)C2 | – | – | inactive
CCOC(=O)C1Cc2c(ccc(OC)c2OC)C(=O)C1N (stereo unspecified) | – | – | inactive
O=c1[nH]c(SCc2c(Cl)c(Cl)c(Cl)c(Cl)c2Cl)nc(=S)[nH]1 | > 200 | 83.2 | –
O=C(CN1CCOCC1)Nc1ccc2c(c1)C1Oc3ccccc3CC1CO2 (stereo unspecified) | – | – | inactive
CS(=O)(=O)OCCCS(=O)(=O)O | > 200 | > 200 | –
O=C(O)c1nn(-c2ccccc2-c2n[nH]c(=O)[nH]c2=O)c(=O)[nH]c1=O | > 200 | > 200 | –
C=CCNC(=S)N/C=C(\c1ccccc1)S(=O)Cc1ccccc1 (stereo unspecified) | > 200 | > 200 | –
CCC(C)C(NC(=O)C(CCC(N)=O)NC(=O)C(CCCCN)NC(=O)C(CO)NC(=O)C(CC(C)C)NC(=O)C(Cc1ccc(O)cc1)NC(=O)C(C)N)C(=O)NC(C)C(=O)NC(CO)C(=O)NC(CC(N)=O)C(=O)O (stereo unspecified) (H-AYLSKQIASN-OH; configuration not given here) | > 57.5 | > 57.5 | –
Nc1nc(Cl)cc(NCC2(CO)CCC2)n1 | > 200 | 191 | –
Cc1cc2ccccc2c[n+]1CC(=O)CC([O-])(C(F)(F)F)C(F)(F)F | > 200 | 95.5 | –
O=C1CSC(=O)N1 | > 2140 | > 2140 | –
CC1(C(=O)O)CCCC2(C)C3=CC(=O)CCC3=CCC12 (stereo unspecified) | > 200 | 186 | –
COc1ccc(O)c2c(=O)ccccc12 | – | – | inactive
Cc1ccc(C)c(NC(=O)CC2Sc3ccccc3NC2=O)c1 (stereo unspecified) | > 30.2 | > 30.2 | –

SMILES | EC50 [µM] | IC50 [µM] | outcome
Cn1c(=O)c(Cc2c(O)c3ccccc3n(C)c2=O)c(O)c2ccccc21 | > 7.24 | > 7.24 | –
CCCOc1csc([C@H]2CCC3[C@@H]4CC=C5C[C@@H](OC(=O)CCC(=O)O)CC[C@]5(C)C4CC[C@@]32C)n1 (stereo partly specified) | > 47.9 | 18.2 | –
CCOC(=O)/C(=C/c1ccco1)C(=O)c1ccccc1 | > 132 | 77.6 | –
COC(=O)/C(C#N)=C1\N=NNN1c1ccc(OC)cc1 | – | – | inactive
O=c1c(O)c(O)c1=O | – | – | inactive
CCc1ccc2c(c1)CC1(C2)Cc2cc3c(cc2C1)C(=O)CC3 (stereo unspecified) | > 200 | 12.6 | –
O=S(=O)(NC1CCC[C@H]1O)c1ccccc1 (stereo partly specified) | – | – | inactive
CC(C)(CCCCC(C)(C)NCC1COc2ccccc2O1)NCC1COc2ccccc2O1 (stereo unspecified) | > 200 | 7.24 | –
c1ccc(-c2nnc(-c3nn(-c4ccccc4)c4nc5ccccc5nc34)o2)cc1 | – | – | inactive
CC(C)c1cccc(C(C)C)c1NC(=O)C(=O)C1SC(=S)NC1=O (stereo unspecified) | > 692 | > 692 | –
CN(/N=C/c1ccc(Cl)c(Cl)c1)C1=NCCCCN1 | > 200 | 26.3 | –
CC1NC(/C(=C/c2ccccc2O)NC(=O)c2ccccc2)OC1=O (stereo unspecified) | > 50.1 | > 50.1 | –
CC12CO[C@@](C)(CC(S(=O)(=O)c3ccccc3)C1)O2 (stereo partly specified) | > 178 | > 178 | –
Cc1ccc(NC(=O)c2cc(S(=O)(=O)Nc3n[nH]c(=O)n3-c3ccccc3)c(S)cc2Cl)cc1 | 42.7 | > 200 | –
COC(=O)C1(NC(=O)C(CC(=O)OC(C)(C)C)NC(=O)OC(C)(C)C)CC1 (stereo unspecified) (Boc-[ξD](OtBu)-[Ac3c]-OMe) | > 200 | > 200 | –
O=C(/C=C/c1ccccc1)CCc1c(O)c2ccccc2oc1=O | > 112 | 97.7 | –
O=c1c(Cc2ccccc2)c(O)n(Cc2nc3ccccc3[nH]2)c(=S)n1-c1ccccc1 | > 200 | > 200 | –
COc1ccc(/C=N/Nc2nnc3c(n2)[nH]c2ccc(Br)cc23)cc1 | > 200 | > 200 | –
CC(C)=CCC/C(C)=C/Cc1cc2ccc(=O)oc2cc1O | > 63.1 | 32.4 | –
COC(=O)CC1C(C)(C)C(=O)C2CC3=C4CC(=O)OC(c5ccoc5)C4(C)CCC3C1(C)C2=O (stereo unspecified) | > 55 | > 55 | –
CCCC(C(=O)OCC)N1C(=O)c2ccccc2S1(=O)=O (stereo unspecified) | > 200 | 148 | –
CC(C)CCCC(C)[C@H]1CC[C@H]2[C@@H]3CC[C@H]4C[C@@H](CCC=C(c5cc(Cl)c(O)c(C(=O)OC(C)C)c5)c5cc(Cl)c(O)c(C(=O)OC(C)C)c5)CC[C@]4(C)[C@H]3CC[C@]12C (stereo partly specified) | 67.6 | 151 | –

SMILES | EC50 [µM] | IC50 [µM] | outcome
COCCOC(=O)C1=C(O)c2ccccc2S(=O)(=O)N1C | > 794 | 562 | –
Cn1c(=O)cc(N2CCCC2)[nH]c1=O | > 200 | > 200 | –
CCCCCCCCCCCCCCCCCCSCC(COP(=O)(O)OP(=O)(O)OCC1OC(n2ccc(=O)[nH]c2=O)CC1N=[N+]=[N-])OC(=O)CCCCCCCCCCCCCCC (stereo unspecified) | > 209 | 186 | –
Cc1ccccc1C1=C(C(=O)Nc2ccc(Cl)c(Cl)c2)NC(=S)NC1N (stereo unspecified) | > 617 | > 617 | –
Cn1c(=O)c2nc3c(nc2n(C)c1=O)oc1ccccc13 | – | – | inactive
CC(C)N(C(=O)C12C3C4C1C1C2C3C41C(=O)O)C(C)C (stereo unspecified) | > 129 | > 129 | –
Cc1ccc(S(=O)(=O)n2cncc2CO)cc1 | > 200 | > 200 | –
O=C(O)/C=C/c1ccc(OS(=O)(=O)O)cc1 | > 200 | > 200 | –
COc1cc2c3cc1Oc1c(OC)c(OC)cc4c1[C@@H](Cc1ccc(O)c(c1)Oc1ccc(cc1)C[C@@H]3N(C)CC2)N(C)CC4 | – | – | inactive
CCOC(=O)CC1(CC(=O)OCC)C(=O)N(C)c2ccccc21 | > 200 | > 200 | –
COc1ccc(/C=C(\C)C=O)cc1 | > 204 | > 204 | –
Cc1cn(C2CC(n3cncn3)C(C(C)O)O2)c(=O)[nH]c1=O (stereo unspecified) | > 813 | > 813 | –
c1cc2c(cc1[C@@H]1OC[C@@H]3[C@H]1CO[C@H]3c1ccc3c(c1)OCO3)OCO2 | > 200 | 79.4 | –
COc1cc2c(oc(=O)c3cc4ccoc4c(OC)c32)c2cccc(O)c12 | > 1.45 | > 1.45 | –
COc1cc(C)cc2c1C(=O)C(Br)CC2 (stereo unspecified) | – | – | inactive
CN(/N=C/c1cccc2cccnc12)c1c([N+](=O)[O-])cc([N+](=O)[O-])cc1[N+](=O)[O-] | – | – | inactive
COc1cc(CC2C(=O)OCC2[C@@H](OC(C)=O)c2ccc3c(c2)OCO3)c(Br)c(OC)c1OC (stereo partly specified) | > 50.1 | 43.7 | –
O=C(CC1C(=O)Nc2ccccc2S1=O)Nc1cc(Cl)ccc1Cl (stereo unspecified) | > 3.8 | > 3.8 | –
CCOP(=O)(OCC)C(Nc1cccc(F)c1)c1ccccc1 (stereo unspecified) | > 200 | 123 | –
C=CCOC(=O)CC[N+]1=CCC(c2ccccc2)(c2ccccc2)O1 | > 29.5 | > 29.5 | –
CCOC(=O)/C(C=Nc1c(C)n(C)n(-c2ccccc2)c1=O)=C(/C)O | > 200 | > 200 | –
COc1ccc(Nc2ccnc3cc(Cl)ccc23)cc1CCN | > 89.1 | > 89.1 | –

SMILES | EC50 [µM] | IC50 [µM] | outcome
CCOC(=O)c1c(NC(=S)Nc2ccc(Cl)cc2)sc2c1CCN(C)C2 | > 100 | > 100 | –
CCC1(CCO)C(=O)NC(=Nc2ccccc2)NC1=O (stereo unspecified) | > 479 | > 479 | –
CCC[CH2][Sn]1([CH2]CCC)[O]N=Cc2ccccc2[O]1 | > 14.1 | 0.437 | –
O=C(CC1(O)C(=O)Nc2c(Cl)cccc21)c1ccccc1 (stereo unspecified) | > 832 | 158 | –
O=c1oc2cc(O)ccc2c2[nH]c3cc(O)ccc3c12 | > 97.7 | 17 | –
COC(=O)C(/C(=N/NC(N)=O)C(=O)Nc1c(C)cccc1C(C)(C)C)c1nc2ccc(Cl)cc2[nH]c1=O (stereo unspecified) | – | – | inactive
CN(C)CC(=O)N1CCc2c([nH]c3ccccc23)C1c1cccnc1 (stereo unspecified) | > 107 | > 107 | –
Cc1occc1C(=S)Nc1ccc(Cl)c(COC(C)(C)C)c1 | 5.13 | 29.5 | –
CC1(CO)C(O)CCC2(C)C1CCC1CC3CC12CCC3(O)CO (stereo unspecified) | > 275 | 0.398 | –
NCCCNCCSP(=O)(O)O | > 1150 | 257 | –
CN1CC(O)C(C(=O)NC23CC4CC(CC(C4)C2)C3)C1 (stereo unspecified) | > 324 | 234 | –
CCOC(=O)c1c(C)[nH]c(=S)c(C#N)c1-c1ccc(Cl)cc1 | > 200 | 43.7 | –
Nn1c(C23CC4CC(CC(C4)C2)C3)n[nH]c1=S | 182 | > 200 | –
O=C1NC(=O)C(=Cc2ccc([N+](=O)[O-])cc2)C(=O)N1 | > 138 | > 138 | –
O=C1/C(=C/c2ccc(Cl)c(Cl)c2)CNC/C1=C\c1ccc(Cl)c(Cl)c1 | > 16.2 | 8.71 | –
COc1cc(-c2[o+]c3cc(O)cc(O)c3cc2O)cc(O)c1O | > 200 | 15.1 | –
CSc1n[nH]c(NC(=O)c2ccc(Cl)cc2)n1 | > 19.5 | > 19.5 | –
Cc1ccc(S(=O)(=O)NCNS(=O)(=O)c2ccc(C)cc2)cc1 | > 200 | > 200 | –
CC(=O)Oc1ccn2nc(C)c(Br)c2c1Br | > 200 | 36.3 | –
CC1(C)Nc2cccc3c(N=Nc4ccc(N=Nc5ccccc5)c5ccccc45)ccc(c23)N1 | > 200 | 26.3 | –
CN1C(=O)N(C)[C@@H]2CC(=O)c3ccc(C(F)(F)F)cc3N2C1=O | > 288 | > 288 | –
CSC1=N/C(=C\c2ccccc2)C(=O)N1CN1CCOCC1 | > 200 | 87.1 | –
